# Like-named read-outs stand apart in the source and are kept apart here.
# Key:
# CYP3A4 [1] = biological target: T1, CYP3A4 (Homo sapiens, UniProt P08684); test: Determination of compound Kiapp against recombinant CYP3A4 enzyme (BFC fluorescent substrate); assay type: biochemical
# Experimental: 1. Determination of compound Kiapp
# A determination of the Kiapp of the compounds of the invention against recombinant CYP3A4 enzyme was performed as follows. The assay was performed in a 100 mM sodium phosphate buffer pH 7.0, 5 mM TCEP and containing 2% dimethylformamide (final concentration) upon addition of substrate and inhibitor. A typical reaction for the determination of Kiapp values was carried at room temperature in a solid black Costar u-bottom 96-well polypropylene plate. In each well, recombinant CYP3A4 enzyme (5.5 nM or 8 nM, final concentration depending on the commercial source of the enzyme) was pre-incubated in the presence of the inhibitor for at least 30 minutes in the assay buffer. When pre-incubation was completed (˜30 min), the reaction was initiated by adding NADPH (200 uM, final concentration), and 7-benzyloxy-4-(trifluoromethyl)-coumarin (BFC) (5 uM, final concentration). The oxidation of the coumarin substrate was recorded by a 96-well plate reader POLARstar (BMG LABTECH, Offenburg, Germany).
# The initial reaction velocities were measured during the first 5 min of the reaction when the release of the fluorescent product is linear with time, in the absence and in the presence of various concentrations of inhibitors. For non-partial & partial inhibitors, the Kiapp values were determined by using the equation for tight-binding inhibitor developed by Morrison, J F (Morrison J F. Biochim Biophys Acta. 1969, 185: 269-86) and by Szedlaseck S E et al. (Szedlascek, S. E., Ostafe, V., Serban, M., and Vlad, M.O. Biochem. J. 1988, 254:311-312), respectively.
# The fluorescent substrate BFC was purchased from Sigma (St Louis, Mo.). Two commercial sources of recombinant enzymes were used in this study: recombinant CYP3A4−b5 enzyme (Baculosomes®) was purchased from Invitrogen (Carlsbad, Calif.) and the recombinant CYP3A4+b5 enzyme (Supersomes®) was purchased from BD Biosciences (Woburn, Mass.).
# CYP3A4 [2] = biological target: T1, CYP3A4; test: Determination of IC50 against CYP3A4 by measurement of inhibition of midazolam metabolism (human liver microsomes, 1-hydroxymidazolam by LC-MS/MS); assay type: biochemical; design: 0.1 mg/mL human liver microsomes; conditions: 2 μM midazolam, 0.1 mg/mL human liver microsomes
# Experimental: 3. Determination of IC50 Against CYP3A4 by Measurement of Inhibition of Midazolam Metabolism
# This assay was performed using a standard 96 well plate design. […] The incubation substrate mix contains 2 μM midazolam, 0.1 mg/mL human liver microsomes, 1 mM NADPH, and potassium phosphate buffer (100 mM, pH 7.4). Quantitation of metabolite peak area ratio against internal standard is determined by LC-MS/MS analysis. The production of 1-hydroxymidazolam from midazolam metabolism is determined after incubation for eight minutes by comparison to a standard curve generated for the metabolite.
# Samples were analyzed in the MRM mode using a Sciex API 3000 mass spectrometer (Applied Biosystems, Foster City, Calif.) with a Paradigm MS4 binary pump (Michrom BioResources Inc., Auburn, Calif.) and a LEAP CTC PAL autosampler (LEAP Technologies, Carrboro, N.C.). A Phenomenex Synergi, 4μ, Polar-RP, 10×2.0 mm column (Phenomenex, Torrance, Calif.) was used for separation with a mobile phase composition of: 0.1% formic acid in water (A) and: 0.1% formic acid in methanol (B). The following gradient was used: […]
# The sample injection volume was 10 μL and flow was split post-column with 0.4 mL/min going to the mass spectrometer. Analysis was performed using the following API 3000 mass spectrometer settings: […]
# [3] = Baculo. enzyme preparation, read-out: Kiapp (BFC, Baculo.)
# [4] = Super. enzyme preparation, read-out: Kiapp (BFC, Super.)
# T1 sequence (P08684 whole entry): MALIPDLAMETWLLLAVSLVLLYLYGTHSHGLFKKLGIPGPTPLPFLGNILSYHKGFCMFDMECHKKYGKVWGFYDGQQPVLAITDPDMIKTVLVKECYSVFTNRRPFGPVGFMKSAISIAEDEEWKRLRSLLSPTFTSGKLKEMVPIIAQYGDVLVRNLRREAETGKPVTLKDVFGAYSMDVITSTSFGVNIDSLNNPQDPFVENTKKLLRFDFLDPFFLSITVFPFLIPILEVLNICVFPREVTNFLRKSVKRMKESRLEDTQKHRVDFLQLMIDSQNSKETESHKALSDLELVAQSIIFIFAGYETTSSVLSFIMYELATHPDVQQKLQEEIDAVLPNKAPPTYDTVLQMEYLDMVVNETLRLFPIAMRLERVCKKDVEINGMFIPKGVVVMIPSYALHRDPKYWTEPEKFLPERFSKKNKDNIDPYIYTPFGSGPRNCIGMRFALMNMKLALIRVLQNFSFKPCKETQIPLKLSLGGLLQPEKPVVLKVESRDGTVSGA
Compound,Ki (CYP3A4 [1]; [3]) [nM],Ki (CYP3A4 [1]; [4]) [nM],IC50 (CYP3A4 [2]) [nM]
"CCC(C)CNC(=O)c1ccccc1S(=O)(=O)Nc1cncc(C)c1 (stereo not drawn) [Example 118, N-(2-methylbutyl)-2-{[(5-methylpyridin-3-yl)amino]sulfonyl}benzamide]",103,13.5,18
"CCOc1ccncc1NS(=O)(=O)c1ccccc1C(=O)NC(C)CC (stereo not drawn) [Example 119, N-(sec-butyl)-2-{[(4-ethoxypyridin-3-yl)amino]sulfonyl}benzamide]",249,71.2,45
"CCC(C)NC(=O)c1ccccc1S(=O)(=O)Nc1cnccc1OC (stereo not drawn) [Example 120, N-(sec-butyl)-2-{[(4-methoxypyridin-3-yl)amino]sulfonyl}benzamide]",487,140,86
"CCC(C)NC(=O)c1ccccc1S(=O)(=O)Nc1cncc(C)c1 (stereo not drawn) [Example 121, N-(sec-butyl)-2-{[(5-methylpyridin-3-yl)amino]sulfonyl}benzamide]",490,71.2,31
"CCOc1ccncc1NS(=O)(=O)c1ccccc1C(=O)N(C)Cc1ccc(C(F)(F)F)cc1 [Example 122, 2-{[(4-ethoxypyridin-3-yl)amino]sulfonyl}-N-methyl-N-[4-(trifluoromethyl)benzyl]benzamide]",49.5,10,31
"CCOc1ccncc1NS(=O)(=O)c1ccccc1C(=O)N(C)Cc1ccccc1F [Example 124, 2-{[(4-ethoxypyridin-3-yl)amino]sulfonyl}-N-(2-fluorobenzyl)-N-methylbenzamide]",136,18,14
"COCCN(C(=O)c1ccccc1S(=O)(=O)Nc1cnccc1OC)C(C)C [Example 127, N-isopropyl-N-(2-methoxyethyl)-2-{[(4-methoxypyridin-3-yl)amino]sulfonyl}benzamide]",694,282,107
"COCCN(C(=O)c1ccccc1S(=O)(=O)Nc1cncc(C)c1)C(C)C [Example 130, N-isopropyl-N-(2-methoxyethyl)-2-{[(5-methylpyridin-3-yl)amino]sulfonyl}benzamide]",134,62.8,22
"COc1cncc(NS(=O)(=O)c2ccccc2C(=O)NCC(F)(F)C(F)(F)C(F)(F)F)c1 [Example 131, N-(2,2,3,3,4,4,4-heptafluorobutyl)-2-{[(5-methoxypyridin-3-yl)amino]sulfonyl}benzamide]",> 1000,329,> 750
"COc1cncc(NS(=O)(=O)c2ccccc2C(=O)NCc2ccc(Cl)c(F)c2)c1 [Example 132, N-(4-chloro-3-fluorobenzyl)-2-{[(5-methoxypyridin-3-yl)amino]sulfonyl}benzamide]",40.6,8.4,8
"COc1cncc(NS(=O)(=O)c2ccccc2C(=O)NCCc2ccc(C(F)(F)F)c(F)c2)c1 [Example 134, N-{2-[3-fluoro-(trifluoromethyl)phenyl]ethyl}-2-{[(5-methoxypyridin-3-yl)amino]sulfonyl}benzamide]",69.7,8.7,14
"COc1cncc(NS(=O)(=O)c2ccccc2C(=O)NCCc2ccc(C)c(F)c2F)c1 [Example 136, N-[2-(2,3-difluoro-4-methylphenyl)ethyl]-2-{[(5-methoxypyridin-3-yl)amino]sulfonyl}benzamide]",59.8,4.8,10
"COc1cncc(NS(=O)(=O)c2ccccc2C(=O)NCCc2ccc(F)c(F)c2)c1 [Example 137, N-[2-(3,4-difluorophenyl)ethyl]-2-{[(5-methoxypyridin-3-yl)amino]sulfonyl}benzamide]",115,7.3,18
"COc1cncc(NS(=O)(=O)c2ccccc2C(=O)NCc2ccc(C)c(Cl)c2)c1 [Example 138, N-(3-chloro-4-methylbenzyl)-2-{[(5-methoxypyridin-3-yl)amino]sulfonyl}benzamide]",19.6,2.7,16
"Cc1ccncc1NS(=O)(=O)c1ccccc1C(=O)N(C)Cc1ccccc1 [Example 139, N-benzyl-N-methyl-2-{[(4-methylpyridin-3-yl)amino]sulfonyl}benzamide]",388,51.1,48
"CN(Cc1ccc(C(F)(F)F)cc1)C(=O)c1ccccc1S(=O)(=O)Nc1cccnc1 [Example 140, N-methyl-2-[(pyridin-3-ylamino)sulfonyl]-N-[4-(trifluoromethyl)benzyl]benzamide]",160,17.3,56
"CN(Cc1ccc(F)cc1)C(=O)c1ccccc1S(=O)(=O)Nc1cccnc1 [Example 141, N-(4-fluorobenzyl)-N-methyl-2-[(pyridin-3-ylamino)sulfonyl]benzamide]",172,21.1,36
"CCOc1ccncc1NS(=O)(=O)c1ccccc1C(=O)N(C)Cc1ccc(F)cc1 [Example 142, 2-{[(4-ethoxypyridin-3-yl)amino]sulfonyl}-N-(4-fluorobenzyl)-N-methylbenzamide]",111,11.8,26
"Cc1ccncc1NS(=O)(=O)c1ccccc1C(=O)N(C)Cc1ccc(F)cc1 [Example 144, N-(4-fluorobenzyl)-N-methyl-2-{[(4-methylpyridin-3-yl)amino]sulfonyl}benzamide]",327,39,72

# More lines, in order of falling Ki (CYP3A4 [1]; [3]), values ahead:
Ki (CYP3A4 [1]; [3]) [nM],Ki (CYP3A4 [1]; [4]) [nM],IC50 (CYP3A4 [2]) [nM],Compound
448,54.9,67,"COCCN(C(=O)c1ccccc1S(=O)(=O)Nc1cccnc1)C(C)C [Example 128, N-isopropyl-N-(2-methoxyethyl)-2-[(pyridin-3-ylamino)sulfonyl]benzamide]"
185,31.2,20,"COc1ccncc1NS(=O)(=O)c1ccccc1C(=O)N(C)Cc1ccccc1F [Example 125, N-(2-fluorobenzyl)-2-{[(4-methoxypyridin-3-yl)amino]sulfonyl}-N-methylbenzamide]"
169,29,58,"COc1ccncc1NS(=O)(=O)c1ccccc1C(=O)N(C)Cc1ccc(F)cc1 [Example 143, N-(4-fluorobenzyl)-2-{[(4-methoxypyridin-3-yl)amino]sulfonyl}-N-methylbenzamide]"
159,14.8,20,"Nc1cncc(NS(=O)(=O)c2ccccc2C(=O)NCc2ccc(F)c(F)c2)c1 [Example 117, 2-{[(5-aminopyridin-3-yl)amino]sulfonyl}-N-(34-difluorobenzyl)benzamide]"
87.6,9.6,12,"Cc1cncc(NS(=O)(=O)c2ccccc2C(=O)N(C)Cc2ccccc2F)c1 [Example 129, N-(2-fluorobenzyl)-N-methyl-2-{[(5-methylpyridin-3-yl)amino]sulfonyl}benzamide]"
72.5,15.2,10,"COc1ccncc1NS(=O)(=O)c1ccccc1C(=O)N(C)Cc1ccc(C(F)(F)F)cc1 [Example 123, 2-{[(4-methoxypyridin-3-yl)amino]sulfonyl}-N-methyl-N-[4-(trifluoromethyl)benzyl]benzamide]"
67.8,11.6,18,"COc1cncc(NS(=O)(=O)c2ccccc2C(=O)NCc2c(Cl)cccc2Cl)c1 [Example 133, N-(2,6-dichlorobenzyl)-2-{[(5-methoxypyridin-3-yl)amino]sulfonyl}benzamide]"
24.8,4.9,18,COc1cncc(NS(=O)(=O)c2ccccc2C(=O)NC(C)Cc2ccc(F)c(F)c2)c1 (stereo not drawn) [Example 135]
